# In patent publication US12673057B2, “RIPK2 inhibition for the treatment of cancer” (CEDARS-SINAI MEDICAL CENTER, priority 2020, dated 2026):
# Entries after “also recorded” stand apart in the source; their conditions may differ. Like-named read-outs stand apart in the source and are kept apart here. Residues, ends and D or L forms follow the SMILES beside them. *: point of attachment. Cbz = O=C(OCc1ccccc1)*
# Assays:
# [1] = test system: PC3, DU145, and 22Rv1 cells; experiment: Clonogenic assay (anchorage-dependent colony formation); type: cell-based, human
# Method: Two milliliters of PC3 (250/mL), DU145 (250/mL), or 22Rv1 (1,000/mL) cells were seeded in 6-well plates and cultured in 10% FBS-containing media, which were replaced every 2-3 days. After 10-14 days, cells were fixed in 4% paraformaldehyde for 15 min and rinsed with DPBS for three times. Cells were stained with 120 μg/mL crystal violet solution. Cell colonies were quantified under an All-in-one microscope (Keyence) as described in the migration assay.
# [2] = test system: 22Rv1 cells
# Method: Experimental metastasis model: For In vivo metastasis assays, pBMN (CMV-copGFP-Luc2-Puro) (Addgene) was stably transfected into control and RIPK2-KO 22Rv1 cells. Two weeks later, luciferase-expressing cells were sorted with a FACSAria III (BD Biosciences) using the same gate for GFP. […] To each male SCID/Beige mouse (7-week-old; Charles River), 100 μL of 1×10^7 cells/mL in DPBS was intracardially injected into the left cardiac ventricle. Each week, 150 μL of 30 mg/mL D-luciferin was intraperitoneally injected into each mouse, followed by measuring tumor metastasis with an IVIS Spectrum In Vivo Imaging System (PerkinElmer). Luciferase activity was quantified by the Living Image software (Caliper Life Sciences, v4.3.1).
# Established metastasis model: For drug treatment, to each male SCID/Beige mouse (8-week-old; Charles River), 100 μL of 2.5×10^6 cells/mL in DPBS was intracardially injected. […] Two more mice were assigned to drug treatment groups in preparation for possible drug toxicity deaths, compared with the control group. Mice were daily administered by oral gavage (po qd) with a drug or vehicle control for 28 days. GSK583 was administered at 10 mg/kg po qd. […] Metastases were visualized by bioluminescence imaging every week as described above. At the end of the experiments, mice were sacrificed by standard necropsy, and tumors were harvested and subjected to histopathology analyses.
# In the clinical scenario, patients with nmCRPC have no detectable metastases by conventional radiographic imaging. […] To investigate whether pharmacological inhibition of RIPK2 can suppress PC metastasis in a setting that mimics the clinical scenario, we injected the aforementioned luciferase-tagged control 22Rv1 cells intracardially into male SCID/Beige mice, and waited for 9 days to allow for the formation of early metastatic lesions, prior to drug treatment (FIG. 22G). To determine whether GSK583 impairs metastatic outgrowth, we randomized the mice into two groups (FIG. 31A), followed by treatment with vehicle control or GSK583 (10 mg/kg) administered by oral gavage every day (po qd).
# [3] = cited from earlier work
# [4] = test system: PC3 and 22Rv1 cells; experiment: PC cell viability; conditions: 1 μM, 10% FBS-containing medium
# [5] = test system: c-Myc-Ser62 phosphorylation; experiment: RIPK2-induced c-Myc-Ser62 phosphorylation immunoblot in RIPK2/MKK7-DKO HEK293T cells; type: cell-based, human
# Method: (A) Representative immunoblots of the indicated proteins in total lysates of HEK293T cells with RIPK2- and MKK7-double knockout, which were transiently co-transfected with 0.5 μg MYC, 0.5 μg RIPK2m4, and 0.1 μg MAP2K7 or vector plasmids and then treated with vehicle control, MKK7-COV-3 (25 μM), or JNK-IN-8 (1 μM) in 10% FBS-containing medium for 2 h. (B) Representative images (upper) and quantification (lower) of PLA detecting the association of endogenous MKK7 and c-Myc in HEK293T cells (n=4 per group). (C) Representative images of immunofluorescence colocalization of MKK7 and c-Myc in RIPK2/MKK7-DKO HEK293T cells, which were transiently co-transfected with RIPK2m4, MKK7-His, and MYC plasmids. (D) Representative immunoblots of the indicated proteins after in vitro kinase reactions. (E) Representative immunoblots of the indicated proteins in total lysates of RIPK2/MKK7-DKO HEK293T cells, which were transiently transfected with the indicated forms of MKK7 plasmids or vector control. (F) Representative immunoblots of the indicated proteins in total lysates, cytoplasmic fraction, and nuclear fraction of RIPK2/MKK7-DKO HEK293T cells, which were transiently co-transfected with RIPK2m4, MYC, and MKK7 or vector control. (G) Representative images (upper) and quantification (lower) of PLA detecting the MKK7-c-Myc complex in RIPK2-KO HEK293T cells, which were transiently transfected with MYC and RIPK2m4 or vector control (n=5 per group). […] Data are Mean±SEM.
# MKK7-COV-3, 25 μM; JNK-IN-8, 1 μM; 2-h treatment).
# [6] = test system: JNK; experiment: RIPK2-induced c-Jun phosphorylation (surrogate for JNK activity) in RIPK2/MKK7-DKO HEK293T cells; type: cell-based, human; conditions: 1 μM, 2-h treatment
# Method: (A) Representative immunoblots of the indicated proteins in total lysates of HEK293T cells with RIPK2- and MKK7-double knockout, which were transiently co-transfected with 0.5 μg MYC, 0.5 μg RIPK2m4, and 0.1 μg MAP2K7 or vector plasmids and then treated with vehicle control, MKK7-COV-3 (25 μM), or JNK-IN-8 (1 μM) in 10% FBS-containing medium for 2 h. (B) Representative images (upper) and quantification (lower) of PLA detecting the association of endogenous MKK7 and c-Myc in HEK293T cells (n=4 per group). (C) Representative images of immunofluorescence colocalization of MKK7 and c-Myc in RIPK2/MKK7-DKO HEK293T cells, which were transiently co-transfected with RIPK2m4, MKK7-His, and MYC plasmids. (D) Representative immunoblots of the indicated proteins after in vitro kinase reactions. (E) Representative immunoblots of the indicated proteins in total lysates of RIPK2/MKK7-DKO HEK293T cells, which were transiently transfected with the indicated forms of MKK7 plasmids or vector control. […] (G) Representative images (upper) and quantification (lower) of PLA detecting the MKK7-c-Myc complex in RIPK2-KO HEK293T cells, which were transiently transfected with MYC and RIPK2m4 or vector control (n=5 per group). […]
# [7] = test system: RIPK2; experiment: Cell-based MKK7 phosphorylation immunoblot, surrogate for RIPK2 activity, RIPK2-KO HEK293T cells; parameters: species or system human; conditions: 10 μM, 2 h, 10% fetal bovine serum
# [8] = test system: RIPK2/MKK7(/JNK)/c-Myc signaling; experiment: Immunoblot of endogenous p-JNK, p-c-Myc-S62 and c-Myc in parental PC cells; type: cell-based, human; conditions: 10 μM GSK583 or 5 μM Ponatinib, 2 h
# [9] = test system: PC3, DU145, and 22Rv1 cells; experiment: Soft agar assay (anchorage-independent colony formation); type: cell-based, human; conditions: 10 μM
# Method: Soft agar assay was performed essentially as described (Borowicz et al., 2014). Briefly, 1.5 mL of 0.5% Nobel agar solution was plated in each well of 6-well plates as the bottom layer. 1.5 mL of 6.67×10^3/mL (for PC3 and DU145) or 1.33×10^4/mL (for 22Rv1) cells in 0.3% noble agar solution were plated in 6-well plates as the top layer. […] The medium was replaced every 2-3 days. After 2-3 weeks, cell colonies were stained with 0.1% crystal violet solution for 20 minutes and washed with deionized water for five times. Cell colonies were quantified under an All-in-one microscope (Keyence) as described in the migration assay.
# [10] = test system: MYC mRNA; experiment: MYC mRNA abundance by quantitative RT-PCR; type: cell-based; conditions: different doses and time
# Text: Total RNA was extracted from cells using the TRIZOL (Invitrogen). Messenger RNA was converted to the first-strand cDNA using iScript cDNA synthesis kit (Bio-Rad), followed by RT-PCR reaction using SYBR Green PCR Master Kit in QuantStudio 5 Systems (Applied Biosystems). Gene expression was normalized to GAPDH using the comparative CT method. To determine how RIPK2 upregulates the c-Myc protein, we first examined whether RIPK2 regulates the transcription of the MYC gene. […] Thus, the regulation of c-Myc protein abundance by RIPK2 is mainly via a post-transcriptional mechanism.
# [11] = mouse, in vivo, po, 30 mg/kg
# [12] = test system: PC3 cells; experiment: 3D spheroid invasion assay; conditions: 10 μM, 3D culture
# [13] = test system: c-Myc protein; experiment: c-Myc protein degradation under cycloheximide treatment in PC3 cells; type: cell-based, human; conditions: in the presence of CHX treatment
# Text: In human cells, the c-Myc protein can be rapidly stabilized through Ser62 phosphorylation, which prevents the targeted degradation of c-Myc by the ubiquitin-proteasome system (Farrell and Sears, 2014). Therefore, we investigated whether RIPK2 phosphorylates and stabilizes the c-Myc protein. Ectopic overexpression of RIPK2 increased the abundance of phospho-c-Myc-Ser62 (p-c-Myc-Ser62) and total c-Myc in a dose-dependent fashion (FIG. 18L). […] Of note, RIPK2 is more frequently amplified or gained in mCRPC or overexpressed in primary PC than all known direct c-Myc-Ser62 kinases (FIG. 29). This raises a possibility that RIPK2 can more efficiently stabilize and activate c-Myc, and thus its overexpression is more favored by PC cells than the known direct c-Myc-Ser62 kinases. Collectively, RIPK2 stabilizes the c-Myc protein by phosphorylating its Ser62 residue and preventing it from proteasomal degradation, and RIPK2 is potentially a major stabilizer of the c-Myc protein in PC cells.
compound,measurement,setting,value
Cc1ccc(C(=O)Nc2ccc(CN3CCN(C)CC3)c(C(F)(F)F)c2)cc1C#Cc1cnc2cccnn12 [Ponatinib],IC50,"[1]; Homo sapiens, read-out: IC50 of colony formation of PC cells",< 1000 nM
same,reduction of total BLI intensities,"[2]; high-dose 30 mg/kg po qd for 10 days then 15 mg/kg, week 4",92%
same,reduction of total BLI intensities,"[2]; low-dose 6 mg/kg po qd, week 4",74%
same,venous thromboembolic events,[3]; % of patients,6%
same,arterial occlusive adverse events: cardiac vascular events,[3]; patients,21%
same,arterial occlusive adverse events: cerebrovascular,[3]; patients,9%
same,arterial occlusive adverse events: peripheral vascular,[3]; patients,12%
same,common adverse event: abdominal pain,[3]; patients,48%
same,common adverse event: arterial ischemia,[3]; patients,42%
same,common adverse event: arthralgia,[3]; patients,32%
same,common adverse event: back pain,[3]; patients,21%
same,common adverse event: constipation,[3]; patients,41%
same,common adverse event: diarrhea,[3]; patients,20%
same,common adverse event: dry skin,[3]; patients,42%
same,common adverse event: fatigue,[3]; patients,47%
same,common adverse event: headache,[3]; patients,43%
same,common adverse event: hypertension,[3]; patients,69%
same,common adverse event: myalgia,[3]; patients,24%
same,common adverse event: nausea,[3]; patients,28%
same,common adverse event: pain in extremity,[3]; patients,23%
same,common adverse event: peripheral neuropathy,[3]; patients,24%
same,common adverse event: pyrexia,[3]; patients,26%
same,common adverse event: rash,[3]; patients,63%
same,effect on PC cell viability,[4],marginal effects
Cc1cc(NC(=O)c2cccc(NC(=O)/C=C/CN(C)C)c2)ccc1Nc1nccc(-c2cccnc2)n1 [JNK-IN-8],reduction of RIPK2-induced c-Myc-Ser62 phosphorylation,"[5]; 1 μM, 2-h treatment",16%
same,inhibition of RIPK2-induced c-Myc-Ser62 phosphorylation at higher concentrations,[5]; up to 25 μM,could not enhance its inhibition
same,"RIPK2-induced c-Jun phosphorylation, a surrogate for JNK activity",[6],completed abolished
C=CC(=O)Nc1cccc(-c2n[nH]c3cc(C)ccc23)c1 [MKK7-COV-3],decrease of RIPK2-induced c-Myc-Ser62 phosphorylation,"[5]; 25 μM, 2-h treatment",45%
CC(C)(C)S(=O)(=O)c1ccc2nccc(Nc3n[nH]c4ccc(F)cc34)c2c1 [GSK583],MKK7 phosphorylation levels (a surrogate for RIPK2 activity),[7],substantially decreased
same,RIPK2/MKK7(/JNK)/c-Myc signaling,[8],can inhibit
same,anchorage-dependent colony formation,"[1]; 10 μM, PC3, DU145, and 22Rv1",suppresses
same,inhibition at 10 µM,"[1]; Homo sapiens, read-out: inhibition of colony formation",≥ 40%
same,inhibition of colony formation,"[1]; low doses (≤1 μM), PC3, DU145, and 22Rv1",not at low doses
same,anchorage-independent colony formation,[9],suppresses
same,PC liver metastasis in vivo,[2]; 10 mg/kg po qd,Inhibits
same,prostate cancer (22Rv1) metastasis in mice,[2]; 10 mg/kg po qd,significantly decreased; also recorded: significantly suppressed; also recorded: significantly reduces; also recorded: Inhibits
same,decrease of BLI intensities in the ventral-side mid-body (liver metastasis),"[2]; 10 mg/kg po qd, week 4",67%
same,reduction of metastatic progression (total BLI intensities),"[2]; 10 mg/kg po qd, week 4",50%
same,regulation of MYC mRNA abundance,[10],~10%
same,toxicity to mice,[11],toxic to mice
same,spheroid invasion of PC3 cells,[12],significantly decreased; also recorded: significantly inhibited; also recorded: suppresses
CC(C)C[C@@H](C=O)NC(=O)[C@H](CC(C)C)NC(=O)[C@H](CC(C)C)NC(=O)OCc1ccccc1 [MG132] (Cbz-Leu-Leu-Leu-aldehyde),degradation of the c-Myc protein,[13],degradation can be blocked
